Assay [1] addresses T1, PYR1 K59R N167G (Arabidopsis thaliana, UniProt O49686, K59R/N167G).
T1 construct: expressed in transfected cells; host or cells: S. cerevisiae Y190 two-hybrid reporter strain
As to the kind of experiment: Y2H Pocket Library Screen (HAB1, X-gal). Type of assay: cell-based. The method in brief:
(§1)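 Each mutant receptor was expressed with HAB1 in the Y190 reporter strain. Cells were spotted onto SD agar minus Leu and Trp supplemented with a 100 μM test compound. Plates incubated two days at 30° C, then colonies were lysed with chloroform and stained with X-gal.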

The target in assay [2] is T2, PYR1 K59R I110M (Arabidopsis thaliana, UniProt O49686, I110M/K59R).
T2 construct: expressed in transfected cells; host or cells: S. cerevisiae Y190 two-hybrid reporter strain
As to the kind of experiment: Y2H Pocket Library Screen (HAB1, X-gal). Format: cell-based. The procedure, abridged:
as §1

Assay [3] addresses T3, PYR1 K59R T162Y (Arabidopsis thaliana, UniProt O49686, K59R/T162Y).
T3 construct: expressed in transfected cells; host or cells: S. cerevisiae Y190
As to the kind of experiment: Y2H Pocket Library Screen (HAB1, X-gal). Format: cell-based. The procedure, abridged: as §1

Assay [4] deals with T4, PYR1 K59R A160C (Arabidopsis thaliana, UniProt O49686, A160C/K59R).
T4 construct: expressed in transfected cells; host or cells: S. cerevisiae Y190
Put plainly: Y2H Pocket Library Screen (HAB1, X-gal). Format: cell-based. The method in brief:
as §1

Assay [5] deals with T5, PYR1 K59R M158C (Arabidopsis thaliana, UniProt O49686, K59R/M158C).
T5 construct: expressed in transfected cells; host or cells: S. cerevisiae Y190 two-hybrid reporter strain
Put plainly: Y2H Pocket Library Screen (HAB1, X-gal). Format: cell-based. The method in brief:
as §1

For assay [6], the target named is T6, PYR1 K59R M158T (Arabidopsis thaliana, UniProt O49686, K59R/M158T).
T6 construct: expressed in transfected cells; host or cells: S. cerevisiae Y190 two-hybrid reporter strain
As to the kind of experiment: Y2H Pocket Library Screen (HAB1, X-gal). Format: cell-based. The procedure, abridged:
as §1

In assay [7] the target is T7, PYR1 K59R N167A (Arabidopsis thaliana, UniProt O49686, K59R/N167A).
T7 construct: expressed in transfected cells; host or cells: S. cerevisiae Y190 two-hybrid reporter strain
Put plainly: Y2H Pocket Library Screen (HAB1, X-gal). Format: cell-based. The procedure, abridged:
as §1

For assay [8], the target named is T8, PYR1 K59R V164A (Arabidopsis thaliana, UniProt O49686, K59R/V164A).
T8 construct: expressed in transfected cells; host or cells: S. cerevisiae Y190
As to the kind of experiment: Y2H Pocket Library Screen (HAB1, X-gal). Type of assay: cell-based. The procedure, abridged:
as §1

Assay [9] concerns the target T9, PYR1 K59R F159M (Arabidopsis thaliana, UniProt O49686, F159M/K59R).
T9 construct: expressed in transfected cells; host or cells: S. cerevisiae Y190
As to the kind of experiment: Y2H Pocket Library Screen (HAB1, X-gal). Type of assay: cell-based. The method in brief: as §1

Assay [10] addresses T10, PYR1 K59R F108C (Arabidopsis thaliana, UniProt O49686, F108C/K59R).
T10 construct: expressed in transfected cells; host or cells: S. cerevisiae Y190 yeast two-hybrid reporter strain
As to the kind of experiment: Y2H Pocket Library Screen (HAB1, X-gal). Format: cell-based. The procedure, abridged: as §1

The target of assay [11] is T11, PYR1 K59R F108L (Arabidopsis thaliana, UniProt O49686, F108L/K59R).
T11 construct: expressed in transfected cells; host or cells: S. cerevisiae Y190 yeast two-hybrid reporter strain
As to the kind of experiment: Y2H Pocket Library Screen (HAB1, X-gal). Format: cell-based. The method in brief:
as §1

For assay [12], the target named is T12, PYR1 K59R A89W (Arabidopsis thaliana, UniProt O49686, A89W/K59R).
T12 construct: expressed in transfected cells; host or cells: S. cerevisiae Y190 yeast two-hybrid reporter strain
As to the kind of experiment: Y2H Pocket Library Screen (HAB1, X-gal). Format: cell-based. The procedure, abridged:
as §1

Assay [13] addresses T13, PYR1 K59R F108V (Arabidopsis thaliana, UniProt O49686, F108V/K59R).
T13 construct: expressed in transfected cells; host or cells: S. cerevisiae Y190 yeast two-hybrid reporter strain
As to the kind of experiment: Y2H Pocket Library Screen (HAB1, X-gal). Format: cell-based. The method in brief:
as §1

Assay [14] addresses T14, PYR1 K59R F108A (Arabidopsis thaliana, UniProt O49686, F108A/K59R).
T14 construct: expressed in transfected cells; host or cells: S. cerevisiae Y190 yeast two-hybrid reporter strain
As to the kind of experiment: Y2H Pocket Library Screen (HAB1, X-gal). Format: cell-based. The method in brief:
as §1

The target in assay [15] is T15, PYR1 K59R F159A (Arabidopsis thaliana, UniProt O49686, F159A/K59R).
T15 construct: expressed in transfected cells; host or cells: S. cerevisiae Y190 two-hybrid reporter strain
Put plainly: Y2H Pocket Library Screen (HAB1, X-gal). Type of assay: cell-based. The procedure, abridged:
as §1

Assay [16] has as its target T16, PYR1 K59R F108S (Arabidopsis thaliana, UniProt O49686, F108S/K59R).
T16 construct: expressed in transfected cells; host or cells: S. cerevisiae Y190 yeast two-hybrid reporter strain
As to the kind of experiment: Y2H Pocket Library Screen (HAB1, X-gal). Format: cell-based. The procedure, abridged:
as §1

Assay [17] deals with homozygous PYR1^MANDI expressing transgenic plants. As to the kind of experiment: thermal imaging of leaf temperature. Type of assay: in vivo, Arabidopsis. Here is the method:
To investigate if the system is sufficient to control ABA responses in vegetative tissues, we generated homozygous transgenic lines for two 35S-driven lines (E15 and E16) and 2 RBCS-driven lines (F29 and F34). These materials were grown along side wild type plants and a previously constructed 35S::GFP-PYR1 over expression line (Park et al., 2009). These plants were grown until three weeks old and then treated with a solution containing either 2 μM mandipropamid and 0.02% Silwet or a mock treatment containing 0.02% Silwet and the mandipropamid carrier solvent (DMSO). 24 hours after treatment, the leaf temperatures were examined using a thermal imaging camera. It is well known that ABA-induced guard cell closure reduces transpiration, which leads to increases in leaf temperatures. […] Since guard cell aperture is the primary determinant of transpiration rates, thermal imaging is a useful way to indirectly infer relative transpiration rates and guard cell aperture at the whole plant level. As is shown in FIG. 3, mandipropamid treatment of homozygous PYR1^MANDI expressing transgenic plants leads to large changes in leaf temperature (˜2° C. increase) within 24 hours of treatment.
Treatment of plants with abscisic acid leads to the induction of CYP707A cytochrome P450s, which hydroxylate ABA at its 8′ methyl group. […] Thus, ABA applications lose effect over time due to metabolic inactivation. Given that mandipropamid is a non-native molecule, it is likely not a degraded by the CYP707A enzyme system. […] Plants were treated with mock, 1, 5 or 20 μM mandipropamid and then analyzed by thermography at 4 hours, 3 and 6 days after treatment. […] Additionally, control and 1 μM treated plants flowered during the experiment while flowering was prevented in the 5 μM and 20 μM treated mandipropamid plants.

SMILES strings stand for the structures.

T4 sequence (O49686 whole entry K59R/A160C): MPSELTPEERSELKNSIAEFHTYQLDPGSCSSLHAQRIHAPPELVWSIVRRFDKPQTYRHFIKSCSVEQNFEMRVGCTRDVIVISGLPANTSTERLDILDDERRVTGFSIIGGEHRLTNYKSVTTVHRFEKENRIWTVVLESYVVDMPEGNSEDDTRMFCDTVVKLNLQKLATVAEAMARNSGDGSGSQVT
T4 sequence (Q9CAJ0 23-511 partner): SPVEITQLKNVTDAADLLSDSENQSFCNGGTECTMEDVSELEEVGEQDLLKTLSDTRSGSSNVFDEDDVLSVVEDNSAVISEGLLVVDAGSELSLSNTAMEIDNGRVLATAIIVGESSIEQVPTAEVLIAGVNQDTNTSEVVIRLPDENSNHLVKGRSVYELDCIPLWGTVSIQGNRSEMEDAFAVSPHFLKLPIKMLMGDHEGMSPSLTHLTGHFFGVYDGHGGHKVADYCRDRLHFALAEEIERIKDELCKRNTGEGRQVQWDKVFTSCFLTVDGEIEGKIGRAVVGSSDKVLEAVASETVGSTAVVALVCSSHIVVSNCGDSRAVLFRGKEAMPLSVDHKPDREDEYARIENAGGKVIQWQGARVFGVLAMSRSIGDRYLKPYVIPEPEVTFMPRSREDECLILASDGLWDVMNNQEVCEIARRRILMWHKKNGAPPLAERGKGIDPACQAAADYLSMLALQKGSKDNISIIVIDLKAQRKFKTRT
T16 sequence (O49686 whole entry K59R/F108S): as the sequence (O49686 whole entry K59R/A160C) above, with F108S, C160A counted along it
T16 sequence (Q9CAJ0 23-511 partner): as the sequence (Q9CAJ0 23-511 partner) above
T2 sequence (O49686 whole entry K59R/I110M): as the sequence (O49686 whole entry K59R/A160C) above, with I110M, C160A counted along it
T2 sequence (Q9CAJ0 23-511 partner): as the sequence (Q9CAJ0 23-511 partner) above
T14 sequence (O49686 whole entry K59R/F108A): as the sequence (O49686 whole entry K59R/A160C) above, with F108A, C160A counted along it
T14 sequence (Q9CAJ0 23-511 partner): as the sequence (Q9CAJ0 23-511 partner) above
T10 sequence (O49686 whole entry K59R/F108C): as the sequence (O49686 whole entry K59R/A160C) above, with F108C, C160A counted along it
T10 sequence (Q9CAJ0 23-511 partner): as the sequence (Q9CAJ0 23-511 partner) above
T11 sequence (O49686 whole entry K59R/F108L): as the sequence (O49686 whole entry K59R/A160C) above, with F108L, C160A counted along it
T11 sequence (Q9CAJ0 23-511 partner): as the sequence (Q9CAJ0 23-511 partner) above
T8 sequence (O49686 whole entry K59R/V164A): as the sequence (O49686 whole entry K59R/A160C) above, with C160A, V164A counted along it
T8 sequence (Q9CAJ0 23-511 partner): as the sequence (Q9CAJ0 23-511 partner) above
T7 sequence (O49686 whole entry K59R/N167A): as the sequence (O49686 whole entry K59R/A160C) above, with C160A, N167A counted along it
T7 sequence (Q9CAJ0 23-511 partner): as the sequence (Q9CAJ0 23-511 partner) above
T5 sequence (O49686 whole entry K59R/M158C): as the sequence (O49686 whole entry K59R/A160C) above, with M158C, C160A counted along it
T5 sequence (Q9CAJ0 23-511, further chain): as the sequence (Q9CAJ0 23-511 partner) above
T3 sequence (Q9CAJ0 23-511): as the sequence (Q9CAJ0 23-511 partner) above
T3 sequence (O49686 whole entry K59R/T162Y): as the sequence (O49686 whole entry K59R/A160C) above, with C160A, T162Y counted along it
T15 sequence (Q9CAJ0 23-511): as the sequence (Q9CAJ0 23-511 partner) above
T15 sequence (O49686 whole entry K59R/F159A): as the sequence (O49686 whole entry K59R/A160C) above, with F159A, C160A counted along it
T6 sequence (Q9CAJ0 23-511): as the sequence (Q9CAJ0 23-511 partner) above
T6 sequence (O49686 whole entry K59R/M158T): as the sequence (O49686 whole entry K59R/A160C) above, with M158T, C160A counted along it
T13 sequence (O49686 whole entry K59R/F108V): as the sequence (O49686 whole entry K59R/A160C) above, with F108V, C160A counted along it
T13 sequence (Q9CAJ0 23-511 partner): as the sequence (Q9CAJ0 23-511 partner) above
T1 sequence (O49686 whole entry K59R/N167G): as the sequence (O49686 whole entry K59R/A160C) above, with C160A, N167G counted along it
T1 sequence (Q9CAJ0 23-511 partner): as the sequence (Q9CAJ0 23-511 partner) above
T12 sequence (O49686 whole entry K59R/A89W): as the sequence (O49686 whole entry K59R/A160C) above, with A89W, C160A counted along it
T12 sequence (Q9CAJ0 23-511, further chain): as the sequence (Q9CAJ0 23-511 partner) above
T9 sequence (O49686 whole entry K59R/F159M): as the sequence (O49686 whole entry K59R/A160C) above, with F159M, C160A counted along it
T9 sequence (Q9CAJ0 23-511, further chain): as the sequence (Q9CAJ0 23-511 partner) above

Regarding `N#Cc1c(Cl)cccc1Cl` [Dichlobenil, dichlobenil], the Threshold in assay [1], in assay [2], in assay [3], in [4], in assay [5] and in [6] was 100 µM throughout. In addition, the Threshold in [7] and in assay [8] was 100 µM each time.
Regarding `C#CCOc1ccc(CCNC(=O)C(OCC#C)c2ccc(Cl)cc2)cc1OC` (centres unmarked) [Mandipropamid, mandipropamid], the Threshold in assay [9], in [10], in [11], in assay [12], in assay [13] and in assay [14] was 100 µM throughout. Besides, the Threshold in assay [15] and in assay [16] was 100 µM each time. The “flowering during the experiment” value is reported as “flowered” in assay [17] (1 μM mandipropamid), “prevented” in [17] (5 μM mandipropamid) and “prevented” in assay [17] (20 μM mandipropamid). This compound also gave a leaf temperature increase in assay [17] (2 μM mandipropamid, within 24 hours of treatment) of about 2 °C. For the same compound, the “persistence of increased leaf temperature” value in assay [17] (5 μM mandipropamid) and in assay [17] (20 μM mandipropamid) was “at least 6 days” in each case. For the same compound, in [17] (mandipropamid treatment), the “time to increased leaf temperature after treatment” value was at most 4 h.

The values above are taken from patent US9738902B2, “Modified PYR/PYL receptors activated by ligands” (priority 2013, dated 2017).
